Data from paper PMC8777805, “Interactions of Nereistoxin and Its Analogs with Vertebrate Nicotinic Acetylcholine Receptors and Molluscan ACh Binding Proteins” (Marine Drugs, 2022).
Where two headings read alike, the source gives them in different places.

Tests used:
[1] = molecular target: T1, Torpedo electric organ muscle type nAChR (Tetronarce californica, UniProt P02710+P02714+P02718); assay: [125I]-α-BTX displacement, Torpedo electric organ membranes; format: binding
T1 construct: from tissue; host or cells: Torpedo californica electric organ washed membranes
T1 sequence (P02710 25-461): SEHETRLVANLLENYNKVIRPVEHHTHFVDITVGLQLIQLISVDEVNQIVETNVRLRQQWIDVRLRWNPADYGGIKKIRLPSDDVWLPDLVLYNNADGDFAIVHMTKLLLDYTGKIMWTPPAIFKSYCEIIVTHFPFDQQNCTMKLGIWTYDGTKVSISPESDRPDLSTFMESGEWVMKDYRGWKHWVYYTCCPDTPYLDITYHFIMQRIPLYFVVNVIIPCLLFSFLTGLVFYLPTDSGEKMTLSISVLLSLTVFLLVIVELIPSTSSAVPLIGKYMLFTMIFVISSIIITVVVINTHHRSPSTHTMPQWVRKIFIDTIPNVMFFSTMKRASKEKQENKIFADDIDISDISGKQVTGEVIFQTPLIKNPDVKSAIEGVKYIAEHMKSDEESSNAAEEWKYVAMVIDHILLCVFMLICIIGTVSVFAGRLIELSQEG
T1 sequence (P02718 22-522): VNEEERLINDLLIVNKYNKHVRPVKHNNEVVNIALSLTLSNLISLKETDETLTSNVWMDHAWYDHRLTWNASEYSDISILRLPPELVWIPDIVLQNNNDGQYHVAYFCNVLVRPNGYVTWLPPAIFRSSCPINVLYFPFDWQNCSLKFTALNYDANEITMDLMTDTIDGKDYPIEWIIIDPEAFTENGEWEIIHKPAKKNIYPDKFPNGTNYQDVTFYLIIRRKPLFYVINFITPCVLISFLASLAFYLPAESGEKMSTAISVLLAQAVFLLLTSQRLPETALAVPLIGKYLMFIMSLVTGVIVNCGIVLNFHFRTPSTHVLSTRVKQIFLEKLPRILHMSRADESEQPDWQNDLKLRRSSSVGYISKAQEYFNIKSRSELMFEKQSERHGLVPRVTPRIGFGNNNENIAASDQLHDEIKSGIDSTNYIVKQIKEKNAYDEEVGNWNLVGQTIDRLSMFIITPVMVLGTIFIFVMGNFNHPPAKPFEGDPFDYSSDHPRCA
T1 sequence (P02712 25-493, further chain): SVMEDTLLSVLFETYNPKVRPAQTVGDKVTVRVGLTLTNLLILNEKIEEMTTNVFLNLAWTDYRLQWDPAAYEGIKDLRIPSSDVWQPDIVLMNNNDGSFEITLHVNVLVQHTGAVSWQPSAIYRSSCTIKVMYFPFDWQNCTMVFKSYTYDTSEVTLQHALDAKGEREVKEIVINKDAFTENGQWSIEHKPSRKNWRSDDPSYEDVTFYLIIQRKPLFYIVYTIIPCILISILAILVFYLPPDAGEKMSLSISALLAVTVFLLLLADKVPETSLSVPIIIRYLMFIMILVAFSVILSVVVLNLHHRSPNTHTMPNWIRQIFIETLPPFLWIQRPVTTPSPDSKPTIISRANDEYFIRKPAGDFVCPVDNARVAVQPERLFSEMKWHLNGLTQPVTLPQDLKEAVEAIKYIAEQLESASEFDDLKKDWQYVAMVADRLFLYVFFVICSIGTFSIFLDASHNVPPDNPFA
T1 sequence (P02714 18-506): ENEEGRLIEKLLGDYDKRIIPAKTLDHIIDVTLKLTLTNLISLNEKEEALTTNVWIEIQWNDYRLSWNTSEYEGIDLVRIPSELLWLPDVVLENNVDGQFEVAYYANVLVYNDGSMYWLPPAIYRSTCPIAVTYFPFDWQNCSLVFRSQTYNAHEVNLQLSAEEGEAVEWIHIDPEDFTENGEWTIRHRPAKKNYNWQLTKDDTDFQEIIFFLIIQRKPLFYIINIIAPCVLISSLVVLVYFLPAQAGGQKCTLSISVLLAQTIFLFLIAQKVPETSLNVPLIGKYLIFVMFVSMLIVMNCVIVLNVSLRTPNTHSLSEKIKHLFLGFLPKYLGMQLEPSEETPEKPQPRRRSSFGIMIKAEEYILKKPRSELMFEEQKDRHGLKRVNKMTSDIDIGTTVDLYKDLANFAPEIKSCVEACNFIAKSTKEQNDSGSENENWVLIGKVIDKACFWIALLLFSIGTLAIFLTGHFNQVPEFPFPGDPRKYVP

[2] = molecular target: T2, A. californica BP Y55W mutant (Aplysia californica, UniProt Q8WSF8, Y72W); assay: [3H]-epibatidine scintillation proximity binding assay, Ac AChBP Y55W mutant; settings: inhibition of [3H]-epibatidine binding; read-out: IC50 ± SEM, Ac BP Y55W
T2 construct: made in house
T2 sequence (Q8WSF8 entry or part of it Y72W): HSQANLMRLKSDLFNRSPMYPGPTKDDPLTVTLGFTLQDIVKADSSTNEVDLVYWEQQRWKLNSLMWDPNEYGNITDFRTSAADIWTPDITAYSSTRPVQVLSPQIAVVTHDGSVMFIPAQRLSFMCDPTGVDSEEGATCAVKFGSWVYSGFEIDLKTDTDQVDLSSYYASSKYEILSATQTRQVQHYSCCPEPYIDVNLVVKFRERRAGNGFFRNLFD
Experimental: (§1) The AChBP proteins were expressed and purified according to Hansen et al.. Determination of compound affinity for an AChBP utilized a modification of the Scintillation Proximity Assay reported previously. Briefly, the AChBP constructs (0.5–1.0 nM final concentration of binding sites) were combined with polyvinyltoluene anti-mouse SPA scintillation beads (0.17 mg/mL final concentration, Perkin Elmer), monoclonal anti-FLAG M2 antibody from mouse 1:8000 dilution (Sigma), and 0.1 M NaPO4 buffer, pH 7.0. This cocktail was distributed to a 96-well plate and incubated with either vehicle (total binding), unknown sample (10 µM final concentration), or a saturating concentration (10 µM) of the known competitive ligand methyllycaconitine to determine the nonspecific binding. The radioligand (±)-[^3H]-epibatidine (Perkin Elmer, 5 nM final concentration) was added to each well with varying the concentrations of competing ligand and allowed to incubate at room temperature for 1 hr. Plates were read on a 1450 MicroBeta TriLux liquid scintillation counter (Wallac) and the output normalized. All measurements were conducted in duplicate a minimum of 3 times. The IC50 values were calculated using GraphPad Prism version 4.02 (GraphPad Software, 2006, San Diego, CA, USA, www.graphpad.com).

[3] = molecular target: T3, Aplysia californica AChBP (Aplysia californica, UniProt Q8WSF8); assay: [3H]-epibatidine scintillation proximity binding assay, Ac AChBP; settings: for IC50: inhibition of [3H]-epibatidine binding, read-out: IC50 ± SEM, Ac BP
T3 construct: made in house
T3 sequence (Q8WSF8 entry or part of it): as the sequence (Q8WSF8 entry or part of it Y72W) above, with W55Y counted along it
Experimental: as §1

rat brain α4β2 nAChRs = molecular target: T4, rat brain α4β2 nAChRs (Rattus norvegicus, UniProt P09483+P12390); assay: [3H]-cytisine displacement, rat brain membranes; format: binding
T4 construct: from tissue; host or cells: whole rat brain membranes
T4 sequence (P09483 31-630): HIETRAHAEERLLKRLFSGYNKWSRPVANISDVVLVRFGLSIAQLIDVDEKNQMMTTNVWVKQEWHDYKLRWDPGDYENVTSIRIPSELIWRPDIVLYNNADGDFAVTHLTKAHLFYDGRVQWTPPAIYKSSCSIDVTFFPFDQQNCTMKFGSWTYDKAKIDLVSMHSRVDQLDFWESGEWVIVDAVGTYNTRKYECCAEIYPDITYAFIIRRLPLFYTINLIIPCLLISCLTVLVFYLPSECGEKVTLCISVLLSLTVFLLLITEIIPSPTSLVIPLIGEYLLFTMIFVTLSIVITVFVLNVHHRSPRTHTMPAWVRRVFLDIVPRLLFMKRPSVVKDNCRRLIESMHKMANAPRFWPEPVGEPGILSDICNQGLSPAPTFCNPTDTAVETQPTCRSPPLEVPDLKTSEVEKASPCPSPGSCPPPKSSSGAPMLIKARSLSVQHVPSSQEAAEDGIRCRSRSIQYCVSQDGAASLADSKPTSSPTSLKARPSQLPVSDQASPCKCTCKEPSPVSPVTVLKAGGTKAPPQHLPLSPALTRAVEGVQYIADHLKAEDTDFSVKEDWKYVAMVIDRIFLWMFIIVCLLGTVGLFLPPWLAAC
T4 sequence (P12390 25-500): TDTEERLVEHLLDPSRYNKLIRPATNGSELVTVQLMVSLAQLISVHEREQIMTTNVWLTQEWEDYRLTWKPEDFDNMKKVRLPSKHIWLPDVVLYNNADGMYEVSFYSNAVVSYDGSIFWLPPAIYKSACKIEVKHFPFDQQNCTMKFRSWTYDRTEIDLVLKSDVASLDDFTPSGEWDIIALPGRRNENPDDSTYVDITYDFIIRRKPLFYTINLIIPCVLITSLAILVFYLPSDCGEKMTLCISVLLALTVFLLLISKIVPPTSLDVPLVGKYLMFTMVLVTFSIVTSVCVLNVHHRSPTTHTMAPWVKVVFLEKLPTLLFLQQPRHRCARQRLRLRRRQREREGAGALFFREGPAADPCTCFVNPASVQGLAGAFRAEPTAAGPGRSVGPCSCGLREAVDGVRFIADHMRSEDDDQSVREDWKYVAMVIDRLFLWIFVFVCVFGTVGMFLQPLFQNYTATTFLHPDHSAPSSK
Experimental: Rat brain membranes (100 μg of protein) expressing […] α4β2 nAChRs were incubated with 0.5 nM [^3H]-cytisine in a final volume of 500 µL binding saline for 4 h at 5 °C. […] Ten different concentrations of the experimental compound were usually tested in quadruplicate. Nonspecific binding was measured in the presence of 1 mM (S)-nicotine hydrogen tartrate (Sigma-Aldrich). Data were fitted using GraphPad Prism software (Version 4 GraphPad Software, San Diego, CA, USA) by nonlinear regression analyses to a sigmoidal one-site model with variable slope.

rat brain α7 nAChR = molecular target: T5, rat brain α7 nAChR (Rattus norvegicus, UniProt Q05941); assay: [125I]-α-BTX displacement, rat brain membranes; format: binding
T5 construct: from tissue; host or cells: whole rat brain membranes
T5 sequence (Q05941 23-502): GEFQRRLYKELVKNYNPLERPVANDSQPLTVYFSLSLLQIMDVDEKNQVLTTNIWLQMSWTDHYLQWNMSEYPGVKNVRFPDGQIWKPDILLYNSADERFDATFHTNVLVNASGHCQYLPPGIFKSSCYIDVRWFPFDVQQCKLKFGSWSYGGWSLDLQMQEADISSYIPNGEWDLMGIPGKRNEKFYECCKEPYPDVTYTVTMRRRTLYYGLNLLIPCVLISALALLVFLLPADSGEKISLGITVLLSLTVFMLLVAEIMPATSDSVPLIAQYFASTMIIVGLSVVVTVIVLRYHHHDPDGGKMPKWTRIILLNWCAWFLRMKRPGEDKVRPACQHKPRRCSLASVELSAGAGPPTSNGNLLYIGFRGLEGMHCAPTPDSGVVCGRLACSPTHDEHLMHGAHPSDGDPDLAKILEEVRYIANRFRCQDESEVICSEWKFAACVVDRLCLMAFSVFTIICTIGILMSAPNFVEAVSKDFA

Lymnaea stagnalis AChBP = molecular target: T6, Lymnaea stagnalis AChBP (Lymnaea stagnalis, UniProt P58154); assay: [3H]-epibatidine scintillation proximity binding assay, Ls AChBP; settings: inhibition of [3H]-epibatidine binding; read-out: IC50 ± SEM, Ls BP
T6 construct: made in house
Experimental: as §1

molluscan AChBPs = assay: Preincubation with toxin before [3H]-epibatidine addition, AChBPs; format: binding
Experimental: as §1

[4] = molecular target: T7, human α4β2 nAChRs expressed in TsA201 cells (Homo sapiens, UniProt P17787+P43681); assay: FlexStation membrane potential functional assay; format: cell-based; settings: for activation (membrane depolarization) of human α4β2 nAChRs: MeNTX up to 300 µM, relative to 5 µM ACh; for inhibition of ACh activation of human α4β2 nAChRs: response to 5 μM acetylcholine
T7 construct: expressed in transfected cells; host or cells: TsA201 cells
T7 sequence (P17787 26-502): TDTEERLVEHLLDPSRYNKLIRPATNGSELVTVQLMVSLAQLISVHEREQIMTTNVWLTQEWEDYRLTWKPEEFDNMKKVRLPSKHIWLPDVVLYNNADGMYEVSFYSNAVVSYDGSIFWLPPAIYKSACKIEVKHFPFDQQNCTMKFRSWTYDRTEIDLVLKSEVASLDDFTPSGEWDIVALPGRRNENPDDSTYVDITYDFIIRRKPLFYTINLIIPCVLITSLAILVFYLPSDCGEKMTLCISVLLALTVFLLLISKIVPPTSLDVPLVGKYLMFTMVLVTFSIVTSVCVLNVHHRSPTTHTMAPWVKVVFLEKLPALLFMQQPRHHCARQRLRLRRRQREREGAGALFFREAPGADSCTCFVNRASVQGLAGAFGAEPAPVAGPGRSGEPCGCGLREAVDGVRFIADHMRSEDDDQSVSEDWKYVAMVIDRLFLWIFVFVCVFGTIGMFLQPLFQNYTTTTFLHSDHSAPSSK
T7 sequence (P43681 29-627): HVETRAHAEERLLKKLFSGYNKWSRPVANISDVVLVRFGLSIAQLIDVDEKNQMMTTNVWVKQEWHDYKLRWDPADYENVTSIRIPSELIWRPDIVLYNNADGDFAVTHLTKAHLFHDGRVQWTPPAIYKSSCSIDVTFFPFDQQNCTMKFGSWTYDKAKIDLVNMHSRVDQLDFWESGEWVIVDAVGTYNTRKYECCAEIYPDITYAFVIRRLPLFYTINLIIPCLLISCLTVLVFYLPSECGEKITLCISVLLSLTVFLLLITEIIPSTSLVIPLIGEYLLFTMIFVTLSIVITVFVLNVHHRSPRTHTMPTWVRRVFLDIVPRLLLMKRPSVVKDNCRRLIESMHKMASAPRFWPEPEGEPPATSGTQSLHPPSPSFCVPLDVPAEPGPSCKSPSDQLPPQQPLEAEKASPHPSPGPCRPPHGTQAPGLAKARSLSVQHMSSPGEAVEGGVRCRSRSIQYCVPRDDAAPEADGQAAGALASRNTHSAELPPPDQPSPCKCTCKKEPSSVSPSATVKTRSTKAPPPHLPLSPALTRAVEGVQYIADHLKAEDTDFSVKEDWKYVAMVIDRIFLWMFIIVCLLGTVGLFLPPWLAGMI
Experimental: TsA201 cells expressing human α4β2 were maintained in media consisting of Dulbecco’s Modified Eagle medium supplemented with 10% FBS, 100 units/mL penicillin and 100 μg/mL streptomycin, 2 mM L-glutamine, 0.5 mg/mL zeocin, and 0.6 mg/mL geneticin. Cells were grown in 75 cm^2 culture flasks, which were housed in a humidified incubator (Fisher Scientific, Atlanta, GA, USA at 37 °C in an atmosphere of 5% CO2. They were grown to around 80–90% confluence after harvesting with 0.25% trypsin and being split weekly at a subcultivation ratio of between 1:6 and 1:10.
Our experimental protocol was based on the initial study of Fitch et al.. Cells were seeded at a density of roughly 5 × 10^4 to 10^5 cells/well in 96-well flat-bottom black wall culture plates coated with 50 μg /mL poly-D-lysine hydrobromide (Sigma-Aldrich, 70–150 kDa) and grown overnight in 100 μL culture medium. A proprietary membrane potential dye obtained from Molecular Devices (San Diego, CA, USA) was prepared by dissolving one bottle of dye into 30 mL of Hanks Saline (pH = 7.4) containing 20 mM HEPES buffer. The cells were incubated with 100 μL of dye for 30 min at 37 °C prior to the robotically controlled concentration-response experiment. Serial dilutions of a compound for dose-response analysis were prepared in 96-well plates by evaporation of a methanolic stock solution and then reconstituted in the appropriate volume of Hanks saline. Fluid transfer and readings were performed by a FlexStation fluorimeter (Molecular Devices). Excitation and emission wavelengths were set to 530 nm and 565 nm with a cutoff of 550 nm. The first 17 s were used as a basal reading.

[5] = molecular target: T8, L. stagnalis AChBP C187S mutant (Lymnaea stagnalis, UniProt P58154, C206S); assay: [3H]-epibatidine scintillation proximity binding assay, Ls AChBP C187S mutant; settings: for IC50: inhibition of [3H]-epibatidine binding
T8 construct: made in house
Experimental: as §1

[6] = tested on: phencyclidine binding site of Torpedo nAChR ion channel; assay: [3H]-TCP binding to Torpedo membranes; settings: results not shown
From the text: We have not yet deciphered the mechanism by which this small molecule can be an nAChR antagonist. […] We did observe that NTX inhibited [^3H]-TCP (radiolabelled analog of phencyclidine) binding to the Torpedo membranes, but this only occurred at NTX concentrations that were ~10X higher than were required to inhibit α-BTX binding (results not shown). Since most competitive antagonists are relatively large rigid molecules, elucidating the molecular mechanism by which NTX, an extremely small molecule, acts as an nAChR antagonist merits further investigation.

[7] = parameters: method as in earlier work; settings: cited from earlier work
[8] = [125I]-α-BTX displacement, mean of n experiments, read-out: IC50 ± SEM, Torpedo electric organ
[9] = rat brain membranes, [3H]-cytisine displacement, mean of n experiments, read-out: IC50 ± SEM, α4β2
[10] = rat brain membranes, [125I]-α-BTX displacement, mean of n experiments, read-out: IC50 ± SEM, α7
[11] = Torpedo IC50 (single experiment, Figure 7 left), 30 min preincubation before BTX
[12] = single [3H]-cytisine displacement experiment
[13] = single [3H]-cytisine displacement experiment, read-out: α4β2 IC50 (individual experiment, Figure 3)
[14] = single [125I]-αBTX displacement experiment
[15] = single [125I]-αBTX displacement experiment, read-out: α7 IC50 (representative experiment, Figure 6)

CN(C)C1CSCSC1 [DMA-DT, 5-dimethylamino-1,3-dithiane]
IC50 [1, 8]: > 500 µM
IC50 [2]: 41.4 ± 4.4 µM
IC50 [3]: 28 ± 0.27 µM
IC50 (rat brain α4β2 nAChRs; [9]): 160 ± 96 µM
IC50 (rat brain α7 nAChR; [10]): 640 ± 220 µM
IC50 (Lymnaea stagnalis AChBP): 22 ± 2.4 µM

C[N+](C)(C)C1CSSC1 [MeNTX, N-methylnereistoxin]
IC50 [1, 11]: 11.2 µM
IC50 [1, 8]: 9.3 ± 4.9 µM
effect of 24 hr preincubation on inhibition of [3H]-epibatidine binding (molluscan AChBPs): failed to detect any effect
IC50 [2]: 74 ± 5.2 µM
activation (membrane depolarization) of human α4β2 nAChRs [4]: failed to activate
inhibition of ACh activation of human α4β2 nAChRs [4]: inhibited ACh activation
affinity of Aplysia californica AChBP less than for NTX ([3]; MeNTX versus NTX): ~ 3.5 fold
IC50 [3]: 260 ± 71 µM
affinity of Ls C187S mutant greater than for NTX ([5]; MeNTX versus NTX): ~ 4 fold
IC50 [5]: 41 µM
IC50 (rat brain α4β2 nAChRs; [9]): 120 ± 13 µM
α4β2 Hillslope (individual experiment, Figure 3) (rat brain α4β2 nAChRs; [12]): -1.5
IC50 (rat brain α4β2 nAChRs; [13]): 121 µM
IC50 (rat brain α7 nAChR; [10]): 45 ± 2.3 µM
α7 Hillslope (representative experiment, Figure 6) (rat brain α7 nAChR; [14]): -1.0
IC50 (rat brain α7 nAChR; [15]): 89.4 µM
IC50 (Lymnaea stagnalis AChBP): 163 ± 8.7 µM

CN(C)C1CSSC1 [NTX, 4-dimethylamino-1,2-dithiolane, reference compound]
IC50 [1, 11]: 254 µM
IC50 [1, 8]: 230 ± 71 µM
NTX concentrations inhibiting [3H]-TCP binding, higher than required to inhibit α-BTX binding [6]: ~ 10 X
effect of 24 hr preincubation on inhibition of [3H]-epibatidine binding (molluscan AChBPs): failed to detect any effect
IC50 [2]: 110 ± 25 µM
activation (membrane depolarization) of human α4β2 nAChRs [4]: no measurable depolarizing activity
inhibition of ACh activation of human α4β2 nAChRs [4]: inhibited ACh activation
IC50 [3]: 71 ± 1.9 µM
IC50 [5]: 160 µM
dimethylamino pKa [7]: 7.2
IC50 (rat brain α4β2 nAChRs; [9]): 60 ± 22 µM
α4β2 Hillslope (individual experiment, Figure 3) (rat brain α4β2 nAChRs; [12]): -1.5
IC50 (rat brain α4β2 nAChRs; [13]): 81.6 µM
IC50 (rat brain α7 nAChR; [10]): 390 ± 8.6 µM
α7 Hillslope (representative experiment, Figure 6) (rat brain α7 nAChR; [14]): -2.6
IC50 (rat brain α7 nAChR; [15]): 826 µM
IC50 (Lymnaea stagnalis AChBP): 140 ± 24 µM

C[N+](C)(C)C1CSCSC1 [TMA-DT, 5-trimethylamino-1,3-dithiane]
IC50 [1, 8]: 150 µM
IC50 [2]: 18 ± 2.8 µM
IC50 [3]: 20 ± 2 µM
IC50 (rat brain α4β2 nAChRs; [9]): 290 ± 60 µM
IC50 (rat brain α7 nAChR; [10]): 90 ± 4.3 µM
IC50 (Lymnaea stagnalis AChBP): 3.7 ± 0.39 µM
